# Assay results: US4039652A, “Column method of immunoassay employing an immobilized binding partner” (Miles Laboratories, Inc., priority 1973, dated 1977)
# B1: HPL: human placental lactogen (HPL) (protein, UniProt P0DML2 27-217, looked up)
# Chorionic somatomammotropin …: VQTVPLSRLFDHAMLQAHRAHQLAIDTYQEFEETYIPKDQKYSFLHDSQTSFCFSDSIPTPSNMEETQQKSNLELLRISLLLIESWLEPVRFLRSMFANNLVYDTSDSDDYHLLKDLEEGIQTLMGRLEDGSRRTGQILKQTYSKFDTNSHNHDALLKNYGLLYCFRKDMDKVETFLRMVQCRSVEGSCGF
# Experiments:
# digitoxin antibodies = assay: Column radioimmunoassay for digitoxin, Example 4; format: binding, rabbit; settings: control = 100%, PBS buffer with 0.1% Tween 20
# Method: 90 mg of digitoxin was suspended in 4 ml of ethanol at ambient temperature. 4 ml of a 0.1M sodium metaperiodate solution was added dropwise. The resulting solution was stirred for 25 minutes and 4 drops of 0.1M ethylene glycol was added. This solution was slowly added to 130 mg of bovine serum albumin in 4 ml of water previously adjusted to pH 9.5 with 5% K2 CO3. The pH was maintained between 9.0 and 9.5 with 5% K2 CO3. After 45 minutes, 0.05 g of NaBH4 in 4 ml of water was added. After 3 hours the pH was lowered to 6.5 with 1M formic acid. After 1 hour, the pH was raised to pH 8.5 with 1M NH4 OH and the mixture was dialyzed against distilled water overnight at 4° C. The next day, the suspension was centrifuged for 2 hours at 1500 rpm. The supernatant was concentrated to 6 ml in an Amicon U-2 ultrafilter, available from Amicon Corporation, Lexington, Massachusetts, and lyophilized.
# The same procedure as described in Example 3 was followed except that the digitoxin-bovine serum albumin conjugate was prepared according to the method described in procedure a. above and this conjugate was dissolved in a few drops of dilute NaOH before being mixed with the PBS buffer.
# The same procedure as described in Example 3 was followed.
# The same procedure as described in Example 3 was followed except that the columns were equilibrated with 10 ml of PBS buffer containing 0.1% Tween 20, a detergent available from the Atlas Powder Company, Wilmington, Delaware, and that PBS buffer containing 0.1% Tween 20 was used in place of PBS buffer. The standard digitoxin solutions were prepared to the following concentrations: 5 ng/ml, 10 ng/ml, 20 ng/ml, 30 ng/ml, 40 ng/ml, and 50 ng/ml.
# The results were as follows (with % bound being calculated based on setting 100% bound as the % bound of the control): […]
# digoxin antibodies = assay: Column radioimmunoassay for digoxin (competition with 3-0-succinyl digoxigenin tyrosine 125I); format: binding, rabbit; settings: control = 100%, 30 + 30 minutes, pH 7.0
# Method: 400 mg of digoxin was suspended in 20 ml of absolute ethanol at ambient temperature. 0.45 g of sodium metaperiodate in 20 ml of water was added dropwise with stirring. After 25 minutes, 0.5 ml of 1M ethylene glycol was added. Five minutes later, this reaction mixture was added dropwise with stirring to 560 mg of bovine serum albumin in 20 ml of water previously adjusted to pH 9.5 with 5% K2 CO3. The pH was maintained between 9.0 and 9.5 by the dropwise addition of 5% K2 CO3. After 45 minutes 0.3 g of sodium borohydride in 20 ml of water was added. Three hours later, the pH was lowered to 6.5 with 1M formic acid. After 1 hour, the pH was raised to 8.5 with 1M NH4 OH. The entire reaction mixture was then dialyzed against distilled water overnight at 4° C. The next day, the pH was lowered to 4.5 with 0.1N HCl. After 1 hour at ambient temperature and 3 hours at 4° C., the suspension was centrifuged for 1 hour at 1500 rpm. The precipitate was dissolved in 21 ml of 0.15M NaHCO3, dialyzed against distilled water for 4 days, and lyophilized.
# Rabbits were injected with inocula consisting of a 50/50 mixture of 4 mg/ml digoxin-bovine serum albumin conjugate, prepared according to the method described in procedure a., in 0.0075M phosphate-0.15M NaCl buffer (pH 7.0) and Freund's complete adjuvant. Four sites along the neck and back of the animals and each footpad were injected with 0.1 ml of this mixture. This procedure was repeated on the first and third weeks. Also, every second week the rabbits were injected intramuscularly with 0.4 ml of the inoculum. At one month intervals, ear bleedings were taken.
# One (1.0) gram of CNBr-activated Sepharose 4B available from Pharmacia AB, Uppsala, Sweden, was added to 200 ml of 0.001N HCl, mixed for 15 minutes, and filtered under vacuum. The swollen Sepharose 4B was then washed with 200 ml of PBS buffer (0.0075 M phosphate-0.15M NaCl, pH 7.0) and resuspended in 3.0 ml of PBS buffer. Whole, unfractionated, diluted antiserum from procedure b. was added with stirring. The reaction mixture was stirred for 2 hours at ambient temperature and then for 22 hours at 4° C. The antibody-coupled Sepharose 4B suspension was washed with 400 ml of PBS buffer and an equal volume of PBS buffer containing 0.1% NaN3 was added. This mixture was in turn diluted with the addition of a 50% suspension of Sepharose 4B in distilled water to give a final dilution of antibody-coupled Sepharose 4B which would bind about half of the radioactive labeled antigen following procedure d. below where the fluid sample tested contained no digoxin. Two (2.0) ml volumes of the diluted antibody-coupled Sepharose 4B were added to 3 ml plastic Stylex syringes, available from Pharmaseal Laboratories, Glendale, California, fitted with polyethylene support disks to give 1 ml Sepharose 4B columns.
# The columns were then equilibrated with 10 ml volumes of PBS buffer and allowed to drain. Standard digoxin solutions were prepared for the following digoxin concentrations: 0.5 ng/ml, 1.0 ng/ml, 2.0 ng/ml, 3.0 ng/ml, 4.0 ng/ml, and 5.0 ng/ml. A control containing no digoxin and the six digoxin standards were added to columns prepared according to procedure c. above in 0.5 ml volumes and allowed to incubate for 30 minutes. The reference sample containing 3-0-succinyl digoxigenin tyrosine ^125 I solution was then added to each column in 0.5 ml portions and allowed to incubate for 30 minutes. The columns were then counted using a Gammacord gamma counter. The columns were washed three times with 3.0 ml volumes of PBS buffer and counted again. The results were as follows (with % bound being calculated based on setting 100% as the % bound of the control): […]
# HPL antibodies [1] = assay: Column enzyme immunoassay for HPL with peroxidase labeled HPL, Example 6; format: binding; settings: for % Color Bound: control = 100; for OD460: optical density of washings at 460 nm (control 1.2)
# Method: HPL was labeled with peroxidase according to the method described in Immunochemistry 6: 43(1969) with the following modifications: 10 mg (HPL and 10 mg horseradish peroxidase were dissolved in 1.4 ml of 0.05M carbonate buffer (pH 9), 0.05 ml of 3% glutaraldehyde solution was added to the mixture. The mixture was then rotated at ambient temperature for 90 minutes and then dialyzed against 128 ml of 0.1M borate buffer (pH 8) with several buffer changes.
# The same procedure as in Example 1b was followed.
# The packed columns were equilibrated by adding 20 ml portions of a borate buffer (pH 9) to the columns and allowing them to drain. The borate buffer was prepared as in Example 1c. HPL standards were prepared for the following HPL concentrations 1000 ng/ml and 62 ng/ml. A control containing no HPL and the two HPL standards were added to columns, prepared according to procedure b above in 0.5 ml volumes and allowed to incubate for 25 minutes. The reference sample containing peroxidase labeled HPL, prepared as in procedure a. above, was then added to each column in 0.5 ml portions and allowed to incubate for 25 minutes. The columns were washed with 10 ml volumes of 0.1M borate buffer (pH 8) followed by 3 ml volumes of 0.1M phosphate buffer (pH 6). A substrate-indicator solution, prepared by mixing 0.28 ml of 0.03% H2 O2 in water, 0.1 ml of 0.25% 3,3'-dimethylbenzidine, and 0.12 ml of 0.1M phosphate buffer (pH 6), was added to each column and allowed to incubate for 10 minutes. The columns were each washed with a 3 ml of volume of 0.1N HCl and the optical density (OD) of the washings were read at 460 nm with the following results: […]
# HPL antibodies [2] = assay: Column saturation radioimmunoassay for human placental lactogen (competition with 125I-HPL), Example 2; format: binding, rabbit; settings: control = 100%, 30 minutes, pH 8.0
# Method: Rabbits were injected with priming inocula consisting of a 50/50 mixture of 2.8 mg/ml HPL antigen in physiological saline solution (0.9%) and Freund's complete adjuvant. Each footpad was injected with 0.2 ml of this mixture. On days 21, 23, 56, 58, 91, 93, 126 and 128, 0.5 ml of booster inocula per day was injected intravenously into the animals. The booster inocula consisted of 0.7 mg/ml HPL antigen in physiological saline solution. Test bleedings were made on days 36 and 70, and on day 140 the animals were exsanguinated
# The columns were prepared as in Example 1 using whole unfractionated HPL antiserum from procedure a. above.
# The procedure as in Example 1c. was followed except that the borate-human serum albumin buffer was prepared to pH 8.0, the incubation times were 30 minutes, and the reference sample contained HPL labeled with ^125 I. […] The results were as follows (with % bound being calculated based on setting 100% bound as the % bound of the control): […]
molecule,measurement,setting,value
"C[C@H]1O[C@@H](O[C@H]2[C@@H](O)C[C@H](O[C@H]3[C@@H](O)C[C@H](O[C@H]4CC[C@@]5(C)[C@H](CC[C@@H]6[C@@H]5CC[C@]5(C)[C@@H](C7=CC(=O)OC7)CC[C@]65O)C4)O[C@@H]3C)O[C@@H]2C)C[C@H](O)[C@@H]1O [Digitoxin, digitoxin]",% Bound,digitoxin antibodies; Digitoxin concentration 5.0 ng/ml,83%
same,% Bound,digitoxin antibodies; Digitoxin concentration 10.0 ng/ml,73.5%
same,% Bound,digitoxin antibodies; Digitoxin concentration 20.0 ng/ml,64%
same,% Bound,digitoxin antibodies; Digitoxin concentration 30.0 ng/ml,56.6%
same,% Bound,digitoxin antibodies; Digitoxin concentration 40.0 ng/ml,50.2%
same,% Bound,digitoxin antibodies; Digitoxin concentration 50.0 ng/ml,42%
"C[C@H]1O[C@@H](O[C@H]2[C@@H](O)C[C@H](O[C@H]3[C@@H](O)C[C@H](O[C@H]4CC[C@@]5(C)[C@H](CC[C@@H]6[C@@H]5C[C@@H](O)[C@]5(C)[C@@H](C7=CC(=O)OC7)CC[C@]65O)C4)O[C@@H]3C)O[C@@H]2C)C[C@H](O)[C@@H]1O [Digoxin, digoxin]",% Bound,digoxin antibodies; Digoxin concentration 0.5 ng/ml,92%
same,% Bound,digoxin antibodies; Digoxin concentration 1.0 ng/ml,79.5%
same,% Bound,digoxin antibodies; Digoxin concentration 2.0 ng/ml,60.2%
same,% Bound,digoxin antibodies; Digoxin concentration 3.0 ng/ml,49.0%
same,% Bound,digoxin antibodies; Digoxin concentration 4.0 ng/ml,41.3%
same,% Bound,digoxin antibodies; Digoxin concentration 5.0 ng/ml,34.7%
B1,% Color Bound,HPL antibodies [1]; HPL concentration 62 ng/ml,63%
same,OD460,HPL antibodies [1]; HPL concentration 62 ng/ml,0.96
same,% Color Bound,HPL antibodies [1]; HPL concentration 1000 ng/ml,35%
same,OD460,HPL antibodies [1]; HPL concentration 1000 ng/ml,0.78
same,% Bound (labeled HPL),HPL antibodies [2]; HPL concentration 1 ng/ml,98%
same,% Bound (labeled HPL),HPL antibodies [2]; HPL concentration 15 ng/ml,70%
same,% Bound (labeled HPL),HPL antibodies [2]; HPL concentration 62 ng/ml,42%
same,% Bound (labeled HPL),HPL antibodies [2]; HPL concentration 1000 ng/ml,9%
